{"source": "patent US11203613B2", "about": "“Peptidomimetic proteasome inhibitors” (CORNELL UNIVERSITY, priority 2017, dated 2021)", "data": [{"target": "Human Constitutive (Hu C-20S) β5 Active Subunit (Homo sapiens, UniProt P28074)", "assay": "IC50 determination, human constitutive 20S proteasome β5c (suc-LLVY-AMC hydrolysis)", "type": "biochemical", "conditions": "Table 3; IC50 against human constitutive β5 active subunit; read-out: Hu-C20S β5", "units": {"IC50": "µM"}, "values": [{"smiles": "Cc1cc(C(=O)N[C@@H](CC(=O)N2CCCC[C@@H]2C)C(=O)N[C@@H](C)c2ncc(-c3ccccc3F)[nH]2)no1", "note": "[CEN-118, N—((S)-1-(((S)-1-(5-(2-Fluorophenyl)-1H-imidazol-2-yl)ethyl)amino)-4-((S)-2-methylpiperidin-1-yl)-1,4-dioxobutan-2-yl)-5-methylisoxazole-3-carboxamide]", "IC50": 15.8}, {"smiles": "C[C@H](NC(=O)N(CC(=O)N1CCCC[C@@H]1C)NC(=O)CCC(C)(C)C)c1ncc(-c2ccc(F)cc2F)[nH]1", "note": "[CEN-101, N—((S)-1-(5-(2,4-Difluorophenyl)-1H-imidazol-2-yl)ethyl)-2-(4,4-dimethylpentanoyl)-1-(2-((S)-2-methylpiperidin-1-yl)-2-oxoethyl)hydrazine-1-carboxamide]", "IC50": 7.6}, {"smiles": "CC(C)(C)NC(=O)CC[C@H](NC(=O)CCc1ccc(F)cc1)C(=O)NC1(c2nc3cccc(F)c3[nH]2)CC1", "note": "[CEN-73, (S)—N5-(tert-Butyl)-N1-(1-(7-fluoro-1H-benzo[d]Imidazol-2-yl)cyclopropyl)-2-(3-(4-fluorophenyl)propanamido)pentanediamide]", "IC50": "> 100"}, {"smiles": "C[C@H](NC(=O)[C@H](CC(=O)N1CCCC[C@@H]1C)NC(=O)CCC1CC1)c1ncc(-c2ccc(F)cc2F)[nH]1", "note": "[CEN-87, (S)-2-(3-Cyclopropylpropanamido)-N—((S)-1-(5-(2,4-difluorophenyl)-1H-imidazol-2-yl)ethyl)-4-((S)-2-methylpiperidin-1-yl)-4-oxobutanamide]", "IC50": 11.7}, {"smiles": "CC(C)CCC(=O)N[C@@H](CC(=O)N1CCC[C@@H]1c1ccccc1)C(=O)N[C@H](C)c1nc2ccccc2[nH]1", "note": "[CEN-49, N—((S)-1-(((R)-1-(1H-Benzo[d]imidazol-2-yl)ethyl)amino)-1,4-dioxo-4-((R)-2-phenylpyrrolidin-1-yl)butan-2-yl)-4-methylpentanamide]", "IC50": 50}, {"smiles": "C[C@H](NC(=O)[C@H](CC(=O)N1CCC[C@@H]1c1ccccc1)NC(=O)CCCC(F)(F)F)c1nc2ccccc2o1", "note": "[CEN-66, N—((S)-1-(((S)-1-(Benzo[d]oxazol-2-yl)ethyl)amino)-1,4-dioxo-4-((R)-2-phenylpyrrolidin-1-yl)butan-2-yl)-5,5,5-trifluoropentanamide]", "IC50": "> 100"}, {"smiles": "CC[C@H]1CCCCN1C(=O)C[C@H](NC(=O)CCN(C)C)C(=O)N[C@@H](C)c1nc2c(F)cccc2[nH]1", "note": "[CEN-4, (S)-2-(3-(Dimethylamino)propanamido)-4-((S)-2-ethylpiperidin-1-yl)-N—((S)-1-(4-fluoro-1H-benzo[d]imidazol-2-yl)ethyl)-4-oxobutanamide]", "IC50": 6.4}, {"smiles": "Cc1ncc(C(=O)N[C@@H](CC(=O)N2CCCC[C@@H]2C)C(=O)N[C@@H](C)c2ncc(-c3ccc(F)cc3F)[nH]2)s1", "note": "[CEN-105, N—((S)-1-(((S)-1-(5-(2,4-Difluorophenyl)-1H-imidazol-2-yl)ethyl)amino)-4-((S)-2-methylpiperidin-1-yl)-1,4-dioxobutan-2-yl)-2-methylthiazole-5-carboxamide]", "IC50": 3.9}, {"smiles": "CC[C@H]1CCCCN1C(=O)C[C@H](Nc1nc2ccccc2o1)C(=O)N[C@@H](C)c1nc2c(F)cccc2[nH]1", "note": "[CEN-16, (S)-2-(Benzo[d]oxazol-2-ylamino)-4-((S)-2-ethylpiperidin-1-yl)-N—((S)-1-(4-fluoro-1H-benzo[d]imidazol-2-yl)ethyl)-4-oxobutanamide]", "IC50": 4.5}, {"smiles": "C[C@H](NC(=O)[C@H](CC(=O)N1CCCC[C@@H]1C)NCC(=O)c1ccccc1)c1ncc(-c2ccc(F)cc2F)[nH]1", "note": "[CEN-103, (S)—N—((S)-1-(5-(2,4-Difluorophenyl)-1H-imidazol-2-yl)ethyl)-4-((S)-2-methylpiperidin-1-yl)-4-oxo-2-((2-oxo-2-phenylethyl)amino)butanamide]", "IC50": 15.2}, {"smiles": "C[C@H](NC(=O)[C@H](CC(=O)N1CCCC[C@@H]1C)NC(=O)[C@H]1C[C@@H]1c1ccccc1)c1nc2c(F)cccc2[nH]1", "note": "[CEN-55, (1S,2S)—N—((S)-1-(((S)-1-(4-Fluoro-1H-benzo[d]Imidazol-2-yl)ethyl)amino)-4-((S)-2-methylpiperidin-1-yl)-1,4-dioxobutan-2-yl)-2-phenylcyclopropane-1-carboxamide]", "IC50": 12.3}, {"smiles": "CC1CC(C(=O)N[C@@H](CC(=O)N2CCC[C@@H]2c2ccccc2)C(=O)NC(C)c2nc3ccccc3[nH]2)C1", "note": "(stereo partly drawn) [CEN-46, N-((2S)-1-((1-(1H-Benzo[d]imidazol-2-yl)ethyl)amino)-1,4-dioxo-4-((R)-2-phenylpyrrolidin-1-yl)butan-2-yl)-3-methylcyclobutane-1-carboxamide]", "IC50": 8.4}, {"smiles": "Cc1ccc(S(=O)(=O)N[C@@H](CC(=O)NC(C)(C)C)C(=O)NC2(c3nc4c(F)cccc4[nH]3)CC2)cc1", "note": "[CEN-69, (S)—N^4-(tert-Butyl)-N^1-(1-(4-fluoro-1H-benzo[d]Imidazol-2-yl)cyclopropyl)-2-((4-methylphenyl)sulfonamido)succinamide]", "IC50": "> 100"}, {"smiles": "Cc1cc(C(=O)N[C@@H](CC(=O)N2CCCC2)C(=O)N[C@@H](C)c2ncc(-c3ccc(F)cc3F)[nH]2)no1", "note": "[CEN-80, N—((S)-1-(((S)-1-(5-(2,4-Difluorophenyl)-1H-imidazol-2-yl)ethyl)amino)-1,4-dioxo-4-(pyrrolidin-1-yl)butan-2-yl)-5-methylisoxazole-3-carboxamide]", "IC50": 16.7}, {"smiles": "CC(C)CCC(=O)N[C@@H](CC(=O)N1CCC[C@@H]1c1ccccc1)C(=O)NC(C)c1nc2ccccc2[nH]1", "note": "(stereo partly drawn) [CEN-47, N-((2S)-1-((1-(1H-Benzo[d]imidazol-2-yl)ethyl)amino)-1,4-dioxo-4-((R)-2-phenylpyrrolidin-1-yl)butan-2-yl)-4-methylpentanamide]", "IC50": 29.4}, {"smiles": "CC(C)CCC(=O)N[C@@H](CC(=O)N1CCC[C@@H]1c1ccccc1)C(=O)N[C@@H](C)c1nc2ccccc2[nH]1", "note": "[CEN-48, N—((S)-1-(((S)-1-(1H-Benzo[d]imidazol-2-yl)ethyl)amino)-1,4-dioxo-4-((R)-2-phenylpyrrolidin-1-yl)butan-2-yl)-4-methylpentanamide]", "IC50": 50}, {"smiles": "CC[C@H]1CCCCN1C(=O)C[C@H](Nc1nc2ccccc2s1)C(=O)N[C@@H](C)c1nc2c(F)cccc2[nH]1", "note": "[CEN-22, (S)-2-(Benzo[d]thiazol-2-ylamino)-4-((S)-2-ethylpiperidin-1-yl)-N—((S)-1-(4-fluoro-1H-benzo[d]imidazol-2-yl)ethyl)-4-oxobutanamide]", "IC50": 1.2}, {"smiles": "Cc1cc(C(=O)N[C@@H](CC(=O)N2CCCC[C@@H]2C)C(=O)N[C@@H](C)c2nc3ccccc3[nH]2)no1", "note": "[CEN-36, N—((S)-1-(((S)-1-(1H-Benzo[d]imidazol-2-yl)ethyl)amino)-4-((S)-2-methylpiperidin-1-yl)-1,4-dioxobutan-2-yl)-5-methylisoxazole-3-carboxamide]", "IC50": 17.5}, {"smiles": "C[C@H](NC(=O)[C@H](CC(=O)N1CCC[C@@H]1c1ccccc1)NC(=O)C1CC2(C1)CC(F)(F)C2)c1nc2ccccc2o1", "note": "[CEN-68, N—((S)-1-(((S)-1-(Benzo[d]oxazol-2-yl)ethyl)amino)-1,4-dioxo-4-((R)-2-phenylpyrrolidin-1-yl)butan-2-yl)-6,6-difluorospiro[3.3]heptane-2-carboxamide]", "IC50": "> 100"}, {"smiles": "CC(C)CCC(=O)N[C@@H](CC(=O)N1CCCC1)C(=O)N[C@@H](C)c1ncc(-c2ccc(F)cc2F)[nH]1", "note": "[CEN-77, N—((S)-1-(((S)-1-(5-(2,4-Difluorophenyl)-1H-imidazol-2-yl)ethyl)amino)-1,4-dioxo-4-(pyrrolidin-1-yl)butan-2-yl)-4-methylpentanamide]", "IC50": 10.4}]}]}
